What all share (experiment): In vitro evaluation of azole compounds, MIC
Holding throughout (format): cell-based

The test system of one assay is Gardnerella vaginalis. To be noted: one table line per isolate, read-out: MIC's of drug needed to inhibit the growth of organism.
Assay [1] deals with Peptostreptococcus magnus. The settings on record: Finegoldia magna, one table line per isolate, read-out: MIC's of drug needed to inhibit the growth of organism.
The test system of assay [2] is Peptostreptococcus tetradius. To be noted: for MIC: Anaerococcus tetradius, read-out: MIC's of drug needed to inhibit the growth of organism.
The subject of assay [3] is Peptostreptococcus asaccharolyticus. The settings on record: Peptoniphilus asaccharolyticus, one table line per isolate, read-out: MIC's of drug needed to inhibit the growth of organism.
The next assay deals with Prevotella bivia. The settings on record: one table line per isolate; for MIC: read-out: MIC's of drug needed to inhibit the growth of organism.
The next assay relates to Prevotella disiens. The settings on record: one table line per isolate; for MIC: read-out: MIC's of drug needed to inhibit the growth of organism.
A further assay relates to Prevotella intermedia. To be noted: one table line per isolate; for MIC: read-out: MIC's of drug needed to inhibit the growth of organism.
Assay [4] concerns Prevotella melaninogenica. The settings on record: one table line per isolate; for MIC: read-out: MIC's of drug needed to inhibit the growth of organism.
The test system of the next assay is Mobiluncus mulieris. To be noted: read-out: MIC's of drug needed to inhibit the growth of organism.
For another assay, the system named is Bacillus fragilis. The settings on record: read-out: MIC's of drug needed to inhibit the growth of organism.
Another assay concerns Bacillus theta. The settings on record: read-out: MIC's of drug needed to inhibit the growth of organism.
The subject of a further assay is Lactobacillus plantarum. To be noted: Lactiplantibacillus plantarum, read-out: MIC's of drug needed to inhibit the growth of organism.
A further assay relates to Lactobacillus species. The settings on record: read-out: MIC's of drug needed to inhibit the growth of organism.
For assay [5], the system named is Lactobacillus acidophilus. To be noted: one table line per isolate; for MIC: read-out: MIC's of drug needed to inhibit the growth of organism.
Where [6] appears, read: Peptostreptococcus tetradius, one table line per isolate.

SMILES strings stand for the structures. ≈ marks a conversion by molar mass, not a printed value. Read-outs that look alike come from different tables or passages of the source.

In the case of `OC(Cn1cncn1)(Cn1cncn1)c1ccc(F)cc1F` [Fluconazole], the MIC (with Gardnerella vaginalis; in assay [1]; in assay [2]; in assay [3]; in the assay on Prevotella bivia; in the assay on Prevotella disiens) was over 2050 µg/mL in each case. In addition, the MIC (in the assay with Prevotella intermedia; in assay [4]; with Mobiluncus mulieris; in the assay on Bacillus fragilis; in the assay with Bacillus theta; with Lactobacillus plantarum) was over 2050 µg/mL in each case. Also, the MIC (in the assay on Lactobacillus species; in assay [5]) was over 2050 µg/mL in each case. Moreover, in assay [2], the “MIC's of drug needed to inhibit the growth of organism” value is 2048 µg/mL.
`Cc1ncc([N+](=O)[O-])n1CCO` [Metronidazole]: the MIC in [2] (setting [6]) stood at 1 µg/mL (≈ 5.84 µM); in the assay on Prevotella bivia, 1 µg/mL (≈ 5.84 µM); in the assay on Prevotella disiens it was 0.5 µg/mL (≈ 2.92 µM); in the assay on Prevotella intermedia, 1 µg/mL (≈ 5.84 µM); in the assay on Mobiluncus mulieris it was 4 µg/mL (≈ 23.4 µM); in the assay on Bacillus fragilis it was 0.5 µg/mL (≈ 2.92 µM). In addition, the MIC is 2 µg/mL (≈ 11.7 µM) in the assay on Bacillus theta, 1 µg/mL (≈ 5.84 µM) in the assay on Lactobacillus plantarum, over 32 µg/mL with Lactobacillus species and over 32 µg/mL in assay [5]. In addition, the “MIC's of drug needed to inhibit the growth of organism” value stood at 0.5 µg/mL in assay [2] (setting [6]) and 1 µg/mL in the assay on Prevotella disiens.
As to `Clc1ccc(COC(Cn2ccnc2)c2ccc(Cl)cc2Cl)c(Cl)c1` (stereo not shown) [Miconazole], the “MIC's of drug needed to inhibit the growth of organism” value with Prevotella bivia stood at 64 µg/mL. Further, the MIC was 128 µg/mL (≈ 308 µM) in the assay on Prevotella bivia; 64 µg/mL (≈ 154 µM) with Prevotella disiens; 64 µg/mL (≈ 154 µM) in the assay on Prevotella intermedia; 64 µg/mL (≈ 154 µM) in assay [4]; 8 µg/mL (≈ 19.2 µM) in the assay with Mobiluncus mulieris; over 128 µg/mL with Bacillus fragilis. In addition, the MIC in the assay with Bacillus theta is 128 µg/mL (≈ 308 µM); with Lactobacillus plantarum, 32 µg/mL (≈ 76.9 µM); with Lactobacillus species, over 128 µg/mL; in assay [5], over 128 µg/mL.
On to `CC(C)N1CCN(c2ccc(OCC3COC(Cn4cncn4)(c4ccc(Cl)cc4Cl)O3)cc2)CC1` (stereo not shown) [Terconazole], for which the MIC in [1] was found to be 256 µg/mL (≈ 481 µM); in assay [2] (setting [6]), 256 µg/mL (≈ 481 µM); in assay [3] it was 256 µg/mL (≈ 481 µM); in the assay with Prevotella bivia it was 256 µg/mL (≈ 481 µM); in the assay with Prevotella disiens it was 128 µg/mL (≈ 240 µM); in the assay with Prevotella intermedia, 128 µg/mL (≈ 240 µM). For the same molecule, the MIC in assay [4] turned out to be 64 µg/mL (≈ 120 µM); with Mobiluncus mulieris, 256 µg/mL (≈ 481 µM); in the assay on Bacillus fragilis, 256 µg/mL (≈ 481 µM); in the assay on Bacillus theta, 256 µg/mL (≈ 481 µM); in the assay with Lactobacillus plantarum, 256 µg/mL (≈ 481 µM); in the assay with Lactobacillus species, 512 µg/mL (≈ 962 µM). Besides, the MIC in assay [5] was 512 µg/mL (≈ 962 µM). In the assay on Prevotella intermedia, the “MIC's of drug needed to inhibit the growth of organism” value was 256 µg/mL.
Consider `CCS(=O)(=O)CCn1c([N+](=O)[O-])cnc1C` [Tinidazole], for which the MIC in [2] (setting [6]) was determined as 0.5 µg/mL (≈ 2.02 µM); in assay [3], 1 µg/mL (≈ 4.04 µM); in the assay on Prevotella bivia, 1 µg/mL (≈ 4.04 µM); in the assay on Prevotella intermedia, 0.5 µg/mL (≈ 2.02 µM); in assay [4], 2 µg/mL (≈ 8.09 µM); in the assay on Mobiluncus mulieris, 1 µg/mL (≈ 4.04 µM). Further, the MIC with Bacillus fragilis is 0.5 µg/mL (≈ 2.02 µM); in the assay with Bacillus theta, 1 µg/mL (≈ 4.04 µM); with Lactobacillus plantarum, 0.65 µg/mL (≈ 2.63 µM); in the assay on Lactobacillus species, over 128 µg/mL; in assay [5], over 128 µg/mL. Moreover, the “MIC's of drug needed to inhibit the growth of organism” value in assay [2] (setting [6]) was 0.25 µg/mL; against Prevotella intermedia, 1 µg/mL; in assay [4] it was 1 µg/mL; in assay [5], under 128 µg/mL.

These data come from patent US20060105008A1, “Compositions and methods for reducing vaginal pH” (priority 2002, published 2006).
